Measurements published in patent US20240148821A1, “PHARMACEUTICAL USE OF CYCLIC PEPTIDE COMPOUND” (CHUGAI SEIYAKU KABUSHIKI KAISHA, priority 2021, published 2024).
Bridge positions count the residues as written; N and C are the ends. Square brackets hold non-standard residues; d marks the D form. Peptide text beside a SMILES is read from it. * marks the point of attachment. hPhe(3-Cl-4-CF3) = N[C@@H](CCc1ccc(C(F)(F)F)c(Cl)c1)C(=O)O; hPhe(3-F,4-CF3) = N[C@@H](CCc1ccc(C(F)(F)F)c(F)c1)C(=O)O; NMePhe(4-CF3) = CN[C@@H](Cc1ccc(C(F)(F)F)cc1)C(=O)O; NMePhe(4-Cl) = CN[C@@H](Cc1ccc(Cl)cc1)C(=O)O; NMeNle(6-CHF2) = CN[C@@H](CCCCC(F)F)C(=O)O; Leu(4,5-dehydro) = C=C(C)C[C@H](N)C(=O)O; NMeAla(cPent) = CN[C@@H](CC1CCCC1)C(=O)O; NMeGly(cPent) = CN[C@H](C(=O)O)C1CCCC1; Phe(3-I) = N[C@@H](Cc1cccc(I)c1)C(=O)O; NMeCha = CN[C@@H](CC1CCCCC1)C(=O)O; NMeAllylGly = C=CC[C@H](NC)C(=O)O; NMeChg = CN[C@H](C(=O)O)C1CCCCC1; NMeD = CN[C@@H](CC(=O)O)C(=O)O; NMeL = CN[C@@H](CC(C)C)C(=O)O; Cba = N[C@@H](CC1CCC1)C(=O)O; Chg = N[C@H](C(=O)O)C1CCCCC1; dNMeAbu = CC[C@@H](NC)C(=O)O; hLeu = CC(C)CC[C@H](N)C(=O)O; NMeV = CN[C@H](C(=O)O)C(C)C; d(β3hA) = C[C@@H](N)CC(=O)O; dNMeS = CN[C@H](CO)C(=O)O; NMeA = CN[C@@H](C)C(=O)O; NMeAib = CNC(C)(C)C(=O)O; Nle = CCCC[C@H](N)C(=O)O; Piperidide = C1CCN(*)CC1; Pra = C#CC[C@H](N)C(=O)O; Pyrrolidide = C1CCN(*)C1; Ac5c = NC1(C(=O)O)CCCC1; Aze = O=C(O)[C@@H]1CCN1; Aib = CC(C)(N)C(=O)O; Isopentyl = CC(C)CC*; Sar = CNCC(=O)O

These molecules were tested on Human pancreatic cancer cell line AsPC-1 (G12D mutation Kras) (assay: AsPC-1 cell growth inhibition (AsPC-1 CGI)). Settings: read-out: AsPC-1 cell growth inhibition, 50% growth inhibitory concentration (IC50 value); 96 hours, CellTiter-Glo, values classified in ranges.
Format: cell-based
Procedure: Test compounds were serially dilated with dimethyl sulfoxide, and 200 nL was then dispensed to a U-bottom 96-well plate using Labcyte Echo. […] The cell suspension was dispensed to a. plate containing a test compound at 100 μL per well and incubated at 37° C. in a 5% carbon dioxide gas incubator. 96 hours later, 80 μL of CellTiter-Glo (Promega) was added to each well and fluorescence was measured.

Structure (SMILES)	IC50 [nM]
C=C(C)C[C@@H]1NC(=O)[C@H](Cc2cccc(I)c2)NC(=O)CN(C)C(=O)[C@H](Cc2ccc(Cl)cc2)N(C)C(=O)CN(C)C(=O)CN(C)C(=O)[C@H]([C@@H](C)CC)NC(=O)[C@H](CC(C)C)N(C)C(=O)C[C@@H](C(=O)N2CCCCC2)N(C)C(=O)[C@H](CC(C)C)NC(=O)C(C)(C)N(C)C1=O [Compound 1421] ([NMeL]I[Sar][Sar][NMePhe(4-Cl)][Sar][Phe(3-I)][Leu(4,5-dehydro)][NMeAib]L[NMeD]-Piperidide; lactam N-11)	> 500
CCCC[C@@H]1NC(=O)[C@H](Cc2cccc(I)c2)NC(=O)CN(C)C(=O)[C@H](Cc2ccc(Cl)cc2)N(C)C(=O)CN(C)C(=O)CN(C)C(=O)[C@H]([C@@H](C)CC)NC(=O)[C@H](CC(C)C)N(C)C(=O)C[C@@H](C(=O)N2CCCCC2)N(C)C(=O)[C@H](CC2CCC2)NC(=O)C(C)(C)N(C)C1=O [Compound 1422] ([NMeL]I[Sar][Sar][NMePhe(4-Cl)][Sar][Phe(3-I)][Nle][NMeAib][Cba][NMeD]-Piperidide; lactam N-11)	> 500
C#CC[C@@H]1NC(=O)[C@H](Cc2cccc(I)c2)NC(=O)CN(C)C(=O)[C@H](Cc2ccc(C(F)(F)F)cc2)N(C)C(=O)[C@@H]2CCN2C(=O)CN(C)C(=O)[C@H]([C@@H](C)CC)NC(=O)[C@H](CC(C)C)N(C)C(=O)C[C@@H](C(=O)N2CCCCC2)N(C)C(=O)[C@H](CC(C)C)NC(=O)C(C)(C)N(C)C1=O [Compound 1425] ([NMeL]I[Sar][Aze][NMePhe(4-CF3)][Sar][Phe(3-I)][Pra][NMeAib]L[NMeD]-Piperidide; lactam N-11)	> 500
C#CC[C@@H]1NC(=O)[C@H](Cc2cccc(I)c2)NC(=O)CN(C)C(=O)[C@H](Cc2ccc(Cl)cc2)N(C)C(=O)CN(C)C(=O)CN(C)C(=O)[C@H]([C@@H](C)CC)NC(=O)[C@H](CC(C)C)N(C)C(=O)C[C@@H](C(=O)N2CCCCC2)N(C)C(=O)[C@H](CC(C)C)NC(=O)C(C)(C)N(C)C1=O [Compound 1426] ([NMeL]I[Sar][Sar][NMePhe(4-Cl)][Sar][Phe(3-I)][Pra][NMeAib]L[NMeD]-Piperidide; lactam N-11)	> 500
C#CC[C@@H]1NC(=O)[C@H](Cc2cccc(I)c2)NC(=O)CN(C)C(=O)[C@H](Cc2ccc(Cl)cc2)N(C)C(=O)[C@@H]2CCN2C(=O)[C@H](C)N(C)C(=O)[C@H]([C@@H](C)CC)NC(=O)[C@H](CC(C)C)N(C)C(=O)C[C@@H](C(=O)N2CCCCC2)N(C)C(=O)[C@H](CC(C)C)NC(=O)C(C)(C)N(C)C1=O [Compound 1428] ([NMeL]I[NMeA][Aze][NMePhe(4-Cl)][Sar][Phe(3-I)][Pra][NMeAib]L[NMeD]-Piperidide; lactam N-11)	> 500
C=C(C)C[C@@H]1NC(=O)[C@H](Cc2cccc(I)c2)NC(=O)CN(C)C(=O)[C@H](Cc2ccc(Cl)cc2)N(C)C(=O)[C@@H]2CCN2C(=O)[C@H](C)N(C)C(=O)[C@H]([C@@H](C)CC)NC(=O)[C@H](CC(C)C)N(C)C(=O)C[C@@H](C(=O)N2CCCCC2)N(C)C(=O)[C@H](CC(C)C)NC(=O)C(C)(C)N(C)C1=O [Compound 1429] ([NMeL]I[NMeA][Aze][NMePhe(4-Cl)][Sar][Phe(3-I)][Leu(4,5-dehydro)][NMeAib]L[NMeD]-Piperidide; lactam N-11)	> 500
CCCC[C@@H]1NC(=O)[C@H](Cc2cccc(I)c2)NC(=O)CN(C)C(=O)[C@H](CC2CCCC2)N(C)C(=O)[C@@H]2CCN2C(=O)[C@H](C)N(C)C(=O)[C@H]([C@@H](C)CC)NC(=O)[C@H](CC(C)C)N(C)C(=O)C[C@@H](C(=O)N2CCCCC2)N(C)C(=O)[C@H](CC(C)C)NC(=O)C(C)(C)N(C)C1=O [Compound 1432] ([NMeL]I[NMeA][Aze][NMeAla(cPent)][Sar][Phe(3-I)][Nle][NMeAib]L[NMeD]-Piperidide; lactam N-11)	> 500
CCCC[C@@H]1NC(=O)[C@H](Cc2cccc(I)c2)NC(=O)CN(C)C(=O)[C@H](Cc2ccc(C(F)(F)F)cc2)N(C)C(=O)CN(C)C(=O)CN(C)C(=O)[C@H]([C@@H](C)CC)NC(=O)[C@H](CC(C)C)N(C)C(=O)C[C@@H](C(=O)N2CCCCC2)N(C)C(=O)[C@H](CCC(C)C)NC(=O)C(C)(C)N(C)C1=O [Compound 1433] ([NMeL]I[Sar][Sar][NMePhe(4-CF3)][Sar][Phe(3-I)][Nle][NMeAib][hLeu][NMeD]-Piperidide; lactam N-11)	> 500
CC[C@@H]1C(=O)NC2(CCCC2)C(=O)N(C)[C@@H](C(C)C)C(=O)N(C)[C@H](C(=O)N2CCCCC2)CC(=O)N(C)[C@@H](CC(C)C)C(=O)N[C@@H]([C@@H](C)CC)C(=O)N(C)[C@@H](C)C(=O)N2CC[C@H]2C(=O)N(C)[C@@H](CC2CCCCC2)C(=O)N(C)CC(=O)N[C@@H](CCc2ccc(C(F)(F)F)c(Cl)c2)C(=O)N1C [Compound 1438] ([NMeL]I[NMeA][Aze][NMeCha][Sar][hPhe(3-Cl-4-CF3)][dNMeAbu][Ac5c][NMeV][NMeD]-Piperidide; lactam N-11)	> 500
CC[C@H](C)[C@@H]1NC(=O)[C@H](CC(C)C)N(C)C(=O)C[C@@H](C(=O)N2CCCCC2)N(C)C(=O)[C@H](C2CCCC2)N(C)C(=O)C2(CCCC2)NC(=O)[C@@H](COCCC(C)C)N(C)C(=O)[C@H](CCc2ccc(C(F)(F)F)c(Cl)c2)NC(=O)CN(C)C(=O)[C@H](CC2CCCCC2)N(C)C(=O)CN(C)C(=O)CN(C)C1=O [Compound 1440] ([NMeL]I[Sar][Sar][NMeCha][Sar][hPhe(3-Cl-4-CF3)][dNMeS](Isopentyl)[Ac5c][NMeGly(cPent)][NMeD]-Piperidide; lactam N-11)	> 500
CC[C@@H]1C(=O)NC2(CCCC2)C(=O)N(C)[C@@H](C2CCCC2)C(=O)N(C)[C@H](C(=O)N2CCCCC2)CC(=O)N(C)[C@@H](CC(C)C)C(=O)N[C@@H]([C@@H](C)CC)C(=O)N(C)[C@@H](C)C(=O)N2CC[C@H]2C(=O)N(C)[C@@H](CC2CCCCC2)C(=O)N(C)CC(=O)N[C@@H](CCc2ccc(C(F)(F)F)c(Cl)c2)C(=O)N1C [Compound 1441] ([NMeL]I[NMeA][Aze][NMeCha][Sar][hPhe(3-Cl-4-CF3)][dNMeAbu][Ac5c][NMeGly(cPent)][NMeD]-Piperidide; lactam N-11)	> 500
CC[C@H](C)[C@@H]1NC(=O)[C@H](CC(C)C)N(C)C(=O)C[C@@H](C(=O)N2CCCCC2)N(C)C(=O)[C@H](C2CCCC2)N(C)C(=O)C2(CCCC2)NC(=O)[C@@H](COCCC(C)C)N(C)C(=O)[C@H](CCc2ccc(C(F)(F)F)c(Cl)c2)NC(=O)CN(C)C(=O)[C@H](CC2CCCCC2)N(C)C(=O)[C@@H]2CCN2C(=O)[C@H](C)N(C)C1=O [Compound 1443] ([NMeL]I[NMeA][Aze][NMeCha][Sar][hPhe(3-Cl-4-CF3)][dNMeS](Isopentyl)[Ac5c][NMeGly(cPent)][NMeD]-Piperidide; lactam N-11)	> 500
CC[C@H](C)[C@@H]1NC(=O)[C@H](CC(C)C)N(C)C(=O)C[C@@H](C(=O)N2CCCCC2)N(C)C(=O)[C@H](C(C)C)N(C)C(=O)C2(CCCC2)NC(=O)[C@@H](CO)N(C)C(=O)[C@H](CCc2ccc(C(F)(F)F)c(Cl)c2)NC(=O)CN(C)C(=O)[C@H](CC2CCCCC2)N(C)C(=O)[C@@H]2CCN2C(=O)[C@H](C)N(C)C1=O [Compound 1444] ([NMeL]I[NMeA][Aze][NMeCha][Sar][hPhe(3-Cl-4-CF3)][dNMeS][Ac5c][NMeV][NMeD]-Piperidide; lactam N-11)	> 500
C=CC[C@H]1C(=O)NC2(CCCC2)C(=O)N(C)[C@@H](C2CCCCC2)C(=O)N(C)[C@H](C(=O)N2CCCCC2)CC(=O)N(C)[C@@H](CC(C)C)C(=O)N[C@@H]([C@@H](C)CC)C(=O)N(C)CC(=O)N(C)CC(=O)N(C)[C@@H](CC2CCCCC2)C(=O)N(C)CC(=O)N[C@@H](CCc2ccc(C(F)(F)F)c(Cl)c2)C(=O)N1C [Compound 1449] ([NMeL]I[Sar][Sar][NMeCha][Sar][hPhe(3-Cl-4-CF3)][NMeAllylGly][Ac5c][NMeChg][NMeD]-Piperidide; lactam N-11 (inferred); C-terminus assumed)	> 500
CC(C)C[C@H]1C(=O)N[C@@H](C(C)C)C(=O)N(C)CC(=O)N(C)CC(=O)N(C)[C@@H](CC2CCCCC2)C(=O)N(C)CC(=O)N[C@@H](CCc2ccc(C(F)(F)F)c(Cl)c2)C(=O)N2CCC[C@H]2C(=O)NC2(CCCC2)C(=O)N(C)[C@@H](CC(C)C)C(=O)N[C@H](C)CC(=O)N1C [Compound 1452] (cyclo([Ac5c][NMeL][d(β3hA)][NMeL]V[Sar][Sar][NMeCha][Sar][hPhe(3-Cl-4-CF3)]P))	> 500
CC(C)C[C@H]1C(=O)N[C@@H](C2CCCCC2)C(=O)N(C)CC(=O)N(C)CC(=O)N(C)[C@@H](CCCCC(F)F)C(=O)N(C)CC(=O)N[C@@H](CCc2ccc(C(F)(F)F)c(F)c2)C(=O)N(C)[C@@H](CC(C)C)C(=O)NC(C)(C)C(=O)N(C)[C@@H](CC(C)C)C(=O)N[C@H](C(=O)N2CCCC2)CC(=O)N1C [Compound 1453] ([NMeL][Chg][Sar][Sar][NMeNle(6-CHF2)][Sar][hPhe(3-F,4-CF3)][NMeL][Aib][NMeL]D-Pyrrolidide; lactam N-11)	> 500
CC[C@H](C)[C@@H]1NC(=O)[C@H](CC(C)C)N(C)C(=O)C[C@@H](C(=O)N2CCCC2)NC(=O)[C@H](CC(C)C)N(C)C(=O)C(C)(C)NC(=O)[C@H](CC(C)C)N(C)C(=O)[C@H](CCc2ccc(C(F)(F)F)c(F)c2)NC(=O)CN(C)C(=O)[C@H](CCCCC(F)F)N(C)C(=O)CN(C)C(=O)CN(C)C1=O [Compound 1455] ([NMeL]I[Sar][Sar][NMeNle(6-CHF2)][Sar][hPhe(3-F,4-CF3)][NMeL][Aib][NMeL]D-Pyrrolidide; lactam N-11)	> 500
CC[C@H](C)[C@@H]1NC(=O)[C@H](CC(C)C)N(C)C(=O)C[C@@H](C(=O)N2CCCCC2)N(C)C(=O)[C@H](CC(C)C)N(C)C(=O)C(C)(C)NC(=O)[C@H](CC(C)C)N(C)C(=O)[C@H](CCc2ccc(C(F)(F)F)c(F)c2)NC(=O)CN(C)C(=O)[C@H](CCCCC(F)F)N(C)C(=O)CN(C)C(=O)CN(C)C1=O [Compound 1456] ([NMeL]I[Sar][Sar][NMeNle(6-CHF2)][Sar][hPhe(3-F,4-CF3)][NMeL][Aib][NMeL][NMeD]-Piperidide; lactam N-11)	> 500
